{"source": "patent US6638535B2", "about": "“Modified release formulations containing a hypnotic agent” (Synthon BV, priority 2000, dated 2003)", "origin": "cited, not measured here", "conditions": "in therapy, after ingestion of the commercial immediate release tablet"}
{"smiles": "Cc1ccc(-c2nc3ccc(C)cn3c2CC(=O)N(C)C)cc1", "note": "[zolpidem, N,N,6-trimethyl-2-(4-methylphenyl)-imidazo[1,2-s]pyridine-3-acetamide]", "values": [{"measurement": "duration of action (action lasts)", "value": "4 to 6", "unit": "h"}, {"measurement": "onset of action (starts acting)", "setting": "'or even earlier'", "value": "15 to 30", "unit": "min"}]}
